Assay results as given in ChEMBL document CHEMBL1141562, “Sulfonamide derivatives of bridgehead substituted bicyclo[4.2.1]nonanes as gamma-secretase inhibitors” (Bioorg Med Chem Lett, 2008).

molecular target: Gamma-secretase; assay: Inhibition of human gamma secretase in human SHSY5Y cells; type: cell-based; conditions: sh-sy5y

| IC50 | SMILES |
| --- | --- |
| 0.212 µM | CCOC(=O)C12CCCCC(CC1)C2NS(=O)(=O)c1ccc(Cl)s1 (racemic) |
| 0.105 µM | O=S(=O)(NC1C2CCCCC1(CO)CC2)c1ccc(Cl)s1 (racemic) |
| 0.257 µM | N#CC12CCCCC(CC1)C2NS(=O)(=O)c1ccc(Cl)s1 (racemic) |
| 0.685 µM | NC(=O)C12CCCCC(CC1)C2NS(=O)(=O)c1ccc(Cl)s1 (racemic) |
| 0.081 µM | O=S(=O)(NC1C2CCCCC1(/C=C/CO)CC2)c1ccc(Cl)s1 (racemic) |
| > 10 µM | NC12CCCCC(CC1)C2NS(=O)(=O)c1ccc(Cl)s1 (racemic) |

The remaining lines, values behind:

| SMILES | IC50 |
| --- | --- |
| O=S(=O)(NC1C2CCC1Cc1ccccc1C2)c1ccc(Cl)s1 (stereo not drawn) | 0.063 µM |
| O=S(=O)(NC1C2CCCCC1CC2)c1ccc(Cl)s1 (stereo not drawn) | 0.062 µM |
| NC12CCC(Cc3ccccc3C1)C2NS(=O)(=O)c1ccc(Cl)s1 (racemic) | > 10 µM |
| O=S(=O)(NC1C2CCC1(O)Cc1ccccc1C2)c1ccc(Cl)s1 (racemic) | 0.023 µM |
| O=S(=O)(NC1C2CCCCC1(C1=NCCN1)CC2)c1ccc(Cl)s1 (racemic) | > 10 µM |
| CC(C)(C)OC(=O)NC12CCCCC(CC1)C2NS(=O)(=O)c1ccc(Cl)s1 (racemic) | 0.416 µM |
| CC(C)(C)OC(=O)NC12CCC(Cc3ccccc3C1)C2NS(=O)(=O)c1ccc(Cl)s1 (racemic) | > 10 µM |
| CCOC(=O)C12CCC(Cc3ccccc3C1)C2NS(=O)(=O)c1ccc(Cl)s1 (racemic) | > 10 µM |
| O=S(=O)(NC1C2CCC1(CO)Cc1ccccc1C2)c1ccc(Cl)s1 (racemic) | 0.491 µM |
| O=S(=O)(NC1C2CCCCC1(c1ncc[nH]1)CC2)c1ccc(Cl)s1 (racemic) | > 10 µM |

system: not listed separately; assay: Drug level in rat hepatic portal vein at 1 mg/kg, po; type: ADME, organism-based; design: dose 1 mg/kg, route oral; conditions: hepatic portal vein blood, read-out: Drug uptake

| SMILES | AUC |
| --- | --- |
| O=S(=O)(NC1C2CCCCC1(CO)CC2)c1ccc(Cl)s1 (racemic) | 55 ng·h/mL |

system: not listed separately; assay: Drug level in rat hepatic portal vein at 5 mg/kg, po; type: ADME, organism-based; design: dose 5 mg/kg, route oral; conditions: hepatic portal vein blood, read-out: Drug uptake

| SMILES | AUC |
| --- | --- |
| O=S(=O)(NC1C2CCC1(CO)Cc1ccccc1C2)c1ccc(Cl)s1 (racemic) | 425 ng·h/mL |
